Assay results taken from PubChem BioAssay AID1963446 (Molecular Pharmacology Branch, DTP, NCI, 2024).

Test system: 993429-296-R-J1-PDC complex spheroid growth, percent test/control
Assay: Anticancer human tumor 993429-296-R-J1-PDC patient-derived uterine sarcoma cell line growth inhibition [Asc]
Conditions: for IC50: curve of first compound; for viability, T/C: stronger effect = lower value
Method: Multicellular complex tumor spheroid response to apoptosis pathway targeting inhibitors Alrizomadlin, Pelcitoclax, and Dasminapant in combination with a variety of drugs and investigational agents in selected tumor cell lines
The MDM2 inhibitor alrizomadlin, the Bcl-2/Bcl-xL inhibitor pelcitoclax, and the IAPs inhibitor dasminapant were evaluated both individually and in combination with standard of care and investigational anticancer small molecules within a complex spheroid model of solid tumors. . Complex spheroids include a stromal component modeled by human endothelial cells (HUVEC) and fibroblasts modeled by human mesenchymal stem cells (MSCs). The concentration ranges selected for each drug and investigational agent were based upon clinically achievable concentrations if the clinical Cmax of the agent was known.
Compounds. The drugs and investigational agents: alrizomadlin (APG-115; NSC831270), pelcitoclax (APG-1252; NSC835773), dasminapant (APG-1387;NSC834197), TAK-243 (NSC785004), copanlisib (NSC809693), olaparib (NSC753686), talazoparib (NSC767125), cobimetinib (NSC 768068), eltanexor (KPT-8602, NSC 794443), abemaciclib (NSC 768073), sotorasib (NSC818433), adagrasib (NSC 831453), MRTX-1133 (NSC 836407), Iadademestat (ORY1001, NSC 806812), and RMC-4630 (NSC839698), were obtained from the NCI Developmental Therapeutics Program Chemical Repository. The FDA-approved anticancer drug set is available from the Developmental Therapeutics Program at https://dtp.cancer.gov/organization/dscb/obtaining/available plates.htm. […] The stock solutions were prepared in dimethyl sulfoxide (DMSO, Sigma-Aldrich, St. Louis, MO, cat. D2650) at 800-fold the tested concentration and stored at -70 degrees C prior to their use. All drugs and investigational agents were tested over a range starting from a high concentration at or near the clinical Cmax and decreasing in half-log increments. If the clinical Cmax for an agent had not been determined, the highest concentration tested was 10 microM.
The patient-derived cancer (PDC) cell lines include five colon adenocarcinomas: 186277-243-T-J2-PDC, 616215-338-R-J1-PDC, 439559-082-T-J2-PDC, 463943-066-T-J2-PDC, and 519858-162-T-J1-PDC; three pancreatic carcinomas: 323965-272-R-J2-PDC, 521955-158-R6-J3-PDC, and 521955-158-R2-J5-PDC; two uterine sarcomas: 327498-152-R-J2-PDC and 993429-296-R-J1-PDC; two rhabdomyosarcomas: 755483-174-R-J1-PDC and 772245-204-R-J1-PDC; two soft tissue sarcomas: 126254-015-R-J1-PDC and 494315-158-R-J1-PDC; two malignant fibrous histiocytomas: 317291-083-R-J1-PDC and 596521-263-R-J1-PDC; two breast carcinomas: 171881-019-R-J1-PDC and 885512-296-R-J2-PDC; and one ovarian carcinoma: 6556581-035-R-J-PDC were obtained from the NCI PDMR, (https://pdmr.cancer.gov). The established cell lines HSSY-2 synovial sarcoma (RRID:CVCL 8719), SYO-1 synovial sarcoma (RRID:CVCL_7146), MPNST malignant peripheral neural sheath tumor were obtained from the Sloan Kettering Institute. The following established cell lines were purchased from the American Type Culture Collection (ATCC, Manassas, VA), Sor the received from the NCI repository:, PANC-1 pancreatic carcinoma (CRL-1469, RRID:CVCL_0480), OVCAR-5 ovarian carcinoma (RRID:CVCL_1628), OVCAR-8 ovarian carcinoma (RRID:CVCL_1629), , MCF-7 breast carcinoma (CRL-12584, RRID:CVCL_0031), MDA-MB-231 breast carcinoma (CRL-12532, RRID:CVCL_0062), NCI-H1876 small cell lung carcinoma (CRL-5902, RRID:CVCL_1503), NCI-H510A small cell lung carcinoma (HTB-184, RRID:CVCL_1565), NCI-H1417 (CRL-5869, RRID:CVCL_1469), and NCI-H196 small cell lung carcinoma (CRL-5823, RRID:CVCL_1509). Dr. Peter Houghton (Greehey Children's Cancer Research Institute, University of Texas Health Science Center, San Antonio, TX) provided Rh-18 rhabdomyosarcoma (RRID:CVCL_1659). Pooled donor human umbilical vein endothelial cells (HUVEC, Lonza, cat. CC-2519) and human mesenchymal stem cells (hMSC, Lonza, cat. PT-2501) were purchased from Lonza (Walkersville, MD).
Cell Culture. […]

[1] = second compound 0.1 µM, first compound 0.0316 µM
[2] = second compound 0.1 µM, first compound 0.1 µM
[3] = second compound 0.1 µM, first compound 0.316 µM
[4] = second compound 0.1 µM, first compound 1 µM
[5] = second compound 0.1 µM, first compound 3.16 µM
[6] = second compound 0.1 µM, first compound 10 µM
[7] = second compound 0.316 µM, first compound 0.0316 µM
[8] = second compound 0.316 µM, first compound 0.1 µM
[9] = second compound 0.316 µM, first compound 0.316 µM
[10] = second compound 0.316 µM, first compound 1 µM
[11] = second compound 0.316 µM, first compound 3.16 µM
[12] = second compound 0.316 µM, first compound 10 µM
[13] = second compound 1 µM, first compound 0.0316 µM
[14] = second compound 1 µM, first compound 0.1 µM
[15] = second compound 1 µM, first compound 0.316 µM
[16] = second compound 1 µM, first compound 1 µM
[17] = second compound 1 µM, first compound 3.16 µM
[18] = second compound 1 µM, first compound 10 µM
[19] = second compound 3.16 µM, first compound 0.0316 µM
[20] = second compound 3.16 µM, first compound 0.1 µM
[21] = second compound 3.16 µM, first compound 0.316 µM
[22] = second compound 3.16 µM, first compound 1 µM
[23] = second compound 3.16 µM, first compound 3.16 µM
[24] = second compound 3.16 µM, first compound 10 µM
[25] = second compound 10 µM, first compound 0.0316 µM
[26] = second compound 10 µM, first compound 0.1 µM
[27] = second compound 10 µM, first compound 0.316 µM
[28] = second compound 10 µM, first compound 1 µM
[29] = second compound 10 µM, first compound 3.16 µM
[30] = second compound 10 µM, first compound 10 µM
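Also: spheroids exposed to compounds for seven days.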

In the case of Cc1nc(N2CCC3(CC2)COC(C)C3N)c(CO)nc1Sc1ccnc(N)c1Cl (stereo not given) + Cc1c(S(C)(=O)=O)c(-c2cc(F)cc(N3CCN(c4ccc(NS(=O)(=O)c5ccc(NC(CCN6CCC(C(=O)OCCCP(=O)(O)O)CC6)CSc6ccccc6)c(S(=O)(=O)C(F)(F)F)c5)cc4)CC3)c2)c(-c2ccc(Cl)cc2)n1C(C)C, the IC50 (second compound 0.1 µM) is reported as 80.2 nM, the IC50 (second compound 0.316 µM) is reported as 30.5 nM and the IC50 (second compound 1 µM) is reported as 14.6 nM. The IC50 (second compound 3.16 µM) was less than 9.49 nM, the IC50 (second compound 10 µM) was 98.7 nM and the viability, T/C (second compound 0.1 µM, first compound 0.00949 µM) was 71.1%. For the same molecule, the viability, T/C (second compound 0.1 µM, first compound 0.03 µM) was 64.3%, the viability, T/C (second compound 0.1 µM, first compound 0.0949 µM) was 47.2% and the viability, T/C (second compound 0.1 µM, first compound 0.3 µM) was 29.7%. For the same molecule, the viability, T/C (second compound 0.1 µM, first compound 0.949 µM) was 18.8%, the viability, T/C (second compound 0.1 µM, first compound 3 µM) was 17.1% and the viability, T/C (second compound 0.316 µM, first compound 0.00949 µM) was 60.7%. The viability, T/C (second compound 0.316 µM, first compound 0.03 µM) was 49.3%, the viability, T/C (second compound 0.316 µM, first compound 0.0949 µM) was 35.7% and the viability, T/C (second compound 0.316 µM, first compound 0.3 µM) was 21.9%. The viability, T/C (second compound 0.316 µM, first compound 0.949 µM) was 14.1%, the viability, T/C (second compound 0.316 µM, first compound 3 µM) was 14.7% and the viability, T/C (second compound 1 µM, first compound 0.00949 µM) was 52.2%. For the same molecule, the viability, T/C (second compound 1 µM, first compound 0.03 µM) was 46.3%, the viability, T/C (second compound 1 µM, first compound 0.0949 µM) was 27% and the viability, T/C (second compound 1 µM, first compound 0.3 µM) was 14.5%. It also gave a viability, T/C (second compound 1 µM, first compound 0.949 µM) of 14.4%, a viability, T/C (second compound 1 µM, first compound 3 µM) of 10.1% and a viability, T/C (second compound 3.16 µM, first compound 0.00949 µM) of 34.6%. The viability, T/C (second compound 3.16 µM, first compound 0.03 µM) was 29.8%, the viability, T/C (second compound 3.16 µM, first compound 0.0949 µM) was 33.6% and the viability, T/C (second compound 3.16 µM, first compound 0.3 µM) was 13.2%. The viability, T/C (second compound 3.16 µM, first compound 0.949 µM) was 10.8%, the viability, T/C (second compound 3.16 µM, first compound 3 µM) was 8.71% and the viability, T/C (second compound 10 µM, first compound 0.00949 µM) was 76.7%. For the same molecule, the viability, T/C (second compound 10 µM, first compound 0.03 µM) was 67.5%, the viability, T/C (second compound 10 µM, first compound 0.0949 µM) was 51.1% and the viability, T/C (second compound 10 µM, first compound 0.3 µM) was 29.9%. The viability, T/C (second compound 10 µM, first compound 0.949 µM) was 14.4% and the viability, T/C (second compound 10 µM, first compound 3 µM) was 13.8%.

Work on C=C(F)C(=O)N1CCN(c2nc(OCC3CCCN3C)nc3c2CCN(c2cccc4cccc(Cl)c24)C3)CC1CC#N (stereo not given) + Cc1c(S(C)(=O)=O)c(-c2cc(F)cc(N3CCN(c4ccc(NS(=O)(=O)c5ccc(NC(CCN6CCC(C(=O)OCCCP(=O)(O)O)CC6)CSc6ccccc6)c(S(=O)(=O)C(F)(F)F)c5)cc4)CC3)c2)c(-c2ccc(Cl)cc2)n1C(C)C yielded an IC50 (second compound 0.1 µM) of 494 nM, an IC50 (second compound 0.316 µM) of 460 nM and an IC50 (second compound 1 µM) of 321 nM. The IC50 (second compound 3.16 µM) was less than 31.6 nM, the IC50 (second compound 10 µM) was 553 nM and the viability, T/C [1] was 57.1%. For the same molecule, the viability, T/C [2] was 85%, the viability, T/C [3] was 69.2% and the viability, T/C [4] was 17.5%. It also gave a viability, T/C [5] of 0.55%, a viability, T/C [6] of 0.23% and a viability, T/C [7] of 71.8%. For the same molecule, the viability, T/C [8] was 77.1%, the viability, T/C [9] was 70.6% and the viability, T/C [10] was 7.35%. The viability, T/C [11] was 0.21%, the viability, T/C [12] was 0.19% and the viability, T/C [13] was 49.5%. For the same molecule, the viability, T/C [14] was 60.8%, the viability, T/C [15] was 50.5% and the viability, T/C [16] was 5.26%. For the same molecule, the viability, T/C [17] was 0.3%, the viability, T/C [18] was 0.14% and the viability, T/C [19] was 46.9%. It also gave a viability, T/C [20] of 49.6%, a viability, T/C [21] of 35.9% and a viability, T/C [22] of 7.98%. For the same molecule, the viability, T/C [23] was 0.08%, the viability, T/C [24] was 0.17% and the viability, T/C [25] was 78.9%. For the same molecule, the viability, T/C [26] was 108%, the viability, T/C [27] was 87.3% and the viability, T/C [28] was 10.4%. For the same molecule, the viability, T/C [29] was 0.43% and the viability, T/C [30] was 0.3%.

With O=C(c1cc(Cc2n[nH]c(=O)c3ccccc23)ccc1F)N1CCN(C(=O)C2CC2)CC1 + Cc1c(S(C)(=O)=O)c(-c2cc(F)cc(N3CCN(c4ccc(NS(=O)(=O)c5ccc(NC(CCN6CCC(C(=O)OCCCP(=O)(O)O)CC6)CSc6ccccc6)c(S(=O)(=O)C(F)(F)F)c5)cc4)CC3)c2)c(-c2ccc(Cl)cc2)n1C(C)C the IC50 (second compound 0.1 µM) was 944 nM, the IC50 (second compound 0.316 µM) was 1110 nM and the IC50 (second compound 1 µM) was 773 nM. For the same molecule, the IC50 (second compound 3.16 µM) was less than 31.6 nM, the IC50 (second compound 10 µM) was 1480 nM and the viability, T/C [1] was 89.2%. It also gave a viability, T/C [2] of 53.2%, a viability, T/C [3] of 56.9% and a viability, T/C [4] of 59.6%. The viability, T/C [5] was 37.8%, the viability, T/C [6] was 9.27% and the viability, T/C [7] was 55.8%. The viability, T/C [8] was 51.1%, the viability, T/C [9] was 69.8% and the viability, T/C [10] was 49.3%. It also gave a viability, T/C [11] of 29.1%, a viability, T/C [12] of 8.15% and a viability, T/C [13] of 51.5%. The viability, T/C [14] was 55.8%, the viability, T/C [15] was 57.2% and the viability, T/C [16] was 48.2%. For the same molecule, the viability, T/C [17] was 20.5%, the viability, T/C [18] was 5.17% and the viability, T/C [19] was 42%. For the same molecule, the viability, T/C [20] was 39%, the viability, T/C [21] was 44.3% and the viability, T/C [22] was 32.6%. For the same molecule, the viability, T/C [23] was 19.3%, the viability, T/C [24] was 4.24% and the viability, T/C [25] was 86.9%. For the same molecule, the viability, T/C [26] was 85.8%, the viability, T/C [27] was 59.9% and the viability, T/C [28] was 70%. The viability, T/C [29] was 13.5% and the viability, T/C [30] was 1.63%.
